Data taken from a melting point compilation (Tetko et al.; mined from patent text by program, amines drawn as free bases though some values may be those of a salt).

First: CNC(=O)c1ccc(N2CCN(Cc3cc4c(c(OC)c3)OC(C)C(=O)N4)CC2)c(F)c1 (stereo unspecified)
Second: CN1CC(CCCCN2CCN(c3ccccc3)CC2)OC1=O (stereo unspecified)
The melting point of the first is higher: 241 to 244 °C for the first, 85 to 88 °C for the second.

First: COc1ccc(Cl)cc1C(=O)NCCc1ccc(Sc2ccccc2)c(S(N)(=O)=O)c1
Second: NS(=O)(=O)c1cc(C(=O)O)cc(NCc2ccccc2)c1Oc1ccccc1
The melting point of the first is lower: 178 °C for the first, 264 to 265 °C for the second.

First: O=[N+]([O-])CS(=O)c1cccc2c1oc1ccccc12 (stereo unspecified)
Second: Cc1cccc2sc3ccccc3c(=O)c12
The melting point of the first is higher: 174 to 176 °C for the first, 107 to 132 °C for the second.

First: CCOC(=O)c1nc(-c2ccc(Cl)cc2F)cc(N)c1OCC(F)(F)F
Second: COC(=O)c1cc(I)c(C(F)(F)F)cc1N
The melting point of the first is higher: 123 to 135 °C for the first, 101 to 103 °C for the second.

First: CC1(C)CCC(C)(C)c2cc(C#Cc3ccc(/C=C/C(=O)O)cc3)ccc21
Second: COCOc1ccccc1-c1ccc(-c2ccc(C(=O)O)cc2)cc1-c1ccc2c(c1)C(C)(C)CCC2(C)C
The melting point of the first is higher: 256 to 258 °C for the first, 132 to 135 °C for the second.

Going from COc1ccccc1C1CCC(=O)CC1(O)C(=O)O (stereo unspecified) to C[C@]12Cc3ccccc3[C@H]1Nc1ccccc12 (relative stereo), the melting point falls from 204 °C to 72 °C.

First: Nc1cccc2c1CN(c1c(F)cc3c(=O)c(C(=O)O)cn(-c4ccc(F)cc4F)c3c1F)C2
Second: O=C(O)c1cn(C2CC2)c2cc(N3CCC4(C3)OCCO4)c(F)cc2c1=O
The melting point of the first is higher: 264 to 266 °C for the first, 229 to 230 °C for the second.

Going from O=C(Nc1cccc(S(=O)(=O)C(F)(F)F)c1)c1cnn2c(C(F)(F)F)cc(-c3ccc(C(F)(F)F)cc3)nc12 to Cc1cc(-c2cc(C(F)(F)F)n3ncc(C(=O)Nc4cccc(S(=O)(=O)NC(C)(C)CO)c4)c3n2)ccc1C(F)(F)F, the melting point rises from 207 °C to 230 °C.

Compared with O=C1NC(=O)C(=Cc2ccccc2)C(=O)N1, CC12CCC(=O)NC1=CCc1ccccc12 (stereo unspecified) is lower in melting point: > 258 °C for the first, 123 to 124 °C for the second.

First: Cc1nnc(-c2ccc3occ(-c4ccc(C(=O)O)c(F)c4)c3c2)o1
Second: CCN1N=C(c2ccc(F)cc2)c2cc(F)ccc2CS1(=O)=O
The melting point of the first is higher: 282 to 283 °C for the first, 148 to 151 °C for the second.

Compared with COc1cc(NC(=O)CCCCCBr)c2nccc(C)c2c1, CCCCCCCCCCCC(=O)c1ccc(-c2ccc(OC)c(F)c2)cc1 is higher in melting point: 111 to 113 °C for the first, 124 to 125 °C for the second.

Compared with Cc1oc2ccc(C3CC(=O)NC(=O)C3)cc2c1C, O=C1CCC(c2ccc3c(c2)NC(=O)CO3)=NN1 is higher in melting point: 183 to 185 °C for the first, 274 to 275 °C for the second.

First: CCOC(=O)c1cc(C#N)cc(C)n1
Second: CCOC(=O)Nc1sc(-c2ccc([N+](=O)[O-])cc2)c(C)c1C(=O)OCC
The melting point of the first is lower: 50 °C for the first, 130 to 131 °C for the second.

First: CC(C)(C)OC(=O)Nc1cc(N2CCC(OC3CCCCO3)C2)c(-c2ccc(F)cc2)cc1NC(=O)CC(=O)c1cccc(-n2ccnc2)c1 (stereo unspecified)
Second: CC(=O)Nc1cc(Oc2ccc3c(C(=O)Nc4ccc(CN5CCNCC5)c(C(F)(F)F)c4)cccc3c2)ncn1
The melting point of the first is lower: 99 to 103 °C for the first, 194 to 197 °C for the second.

Compared with Cc1cc(-c2ccc(C(F)(F)F)nc2)nc(-c2cccc(-c3ccc(S(N)(=O)=O)s3)c2)n1, Cc1ccc2cccc(OCc3cccc(N)c3C)c2n1 is lower in melting point: 238 °C for the first, 223 to 227 °C for the second.

Compared with CC(C)Cc1ncn(C(C)C(O)(Cc2nc[nH]n2)c2ccc(Cl)cc2)n1 (stereo unspecified), CC(C)(O)Cn1cnc2c(N)nc3cc(OCc4ccccc4)ccc3c21 is higher in melting point: 140 to 141 °C for the first, 254 to 257 °C for the second.

First: COc1ccc(NC(=O)Nc2ccccc2)cc1
Second: COc1ccc(-c2ccc(C(C)=O)cc2[N+](=O)[O-])cc1
The melting point of the first is higher: 196 to 198 °C for the first, 124 to 126 °C for the second.

First: Cc1cccc(SCn2cc(F)cnc2=O)c1
Second: CN1Cc2cccnc2N(c2cccc(F)c2)C1=O
The melting point of the first is lower: 124 °C for the first, 189 to 192 °C for the second.

Compared with CCCCOc1ccc(Cc2nn(-c3ccccc3Cl)c(=O)o2)cc1, COc1ccc(C(Cc2ccc(OCCc3nc(-c4ccccc4)oc3C)cc2)C(=O)O)cc1 (stereo unspecified) is higher in melting point: 63 °C for the first, 115 to 117 °C for the second.

First: COc1ccc2c(c1)CCC1C2CCC2(C)C1CCC2N(C=O)CCCO (stereo unspecified)
Second: COc1ccc(Br)c(C=O)c1
The melting point of the first is higher: 159 to 161 °C for the first, 73 to 74 °C for the second.

Compared with ON=C1CCC2(O)C3Cc4ccc(O)c5c4C2(CCN3CC2CC2)C1O5 (stereo unspecified), CCC1CC(=O)C2Oc3c(OC)ccc4c3C23CCN(C#N)C(C4)C13 (stereo unspecified) is lower in melting point: 235 to 236 °C for the first, 212 to 217 °C for the second.

Compared with CC(C)(C)c1cc(Oc2ccc(N)c(O)c2)ccc1Oc1ccc(N)c(O)c1, CCCCCC(CC(=O)Nc1cc(C(=O)NC(=O)c2ccncc2)ccc1C(C)(C)C)c1ccc(OC)cc1OC (stereo unspecified) is higher in melting point: 110 to 113 °C for the first, 184 to 185 °C for the second.

Compared with CC(=NNC(N)=O)c1ccc(NS(C)(=O)=O)c(Oc2ccc(F)cc2F)c1, CN1C(=O)CCC2=C1Cc1cc(C(=O)c3ccc(Cl)c(S(N)(=O)=O)c3)ccc12 is higher in melting point: 187 to 189 °C for the first, 259 to 260 °C for the second.

First: O=C(NCc1ccccc1)OCC(=O)c1ccccc1
Second: COC(=O)CCc1cc2ccccc2n1S(=O)(=O)c1ccccc1
The melting point of the first is higher: 110 to 112 °C for the first, 95 to 99 °C for the second.

First: COc1ccccc1OCCCc1oc(-n2cnc(-c3ccccc3)c2-c2ccccc2)nc1-c1ccc(Cl)cc1
Second: COc1ccc(Cc2n[nH]c3c2c(=O)n(-c2ccccc2)c2ncccc32)c(OC)c1
The melting point of the first is lower: 118 to 119 °C for the first, 266 to 267 °C for the second.

First: CCOCCN(c1cccc2cc(C(N)=S)[nH]c12)S(=O)(=O)c1cccs1
Second: CCOC(=O)COc1ccc(C(=O)c2cccs2)c2ccccc12
The melting point of the first is higher: 182 °C for the first, 79 °C for the second.

First: CCC(C)c1cccc(C(C)CC)c1C(=O)O (stereo unspecified)
Second: CCC(CC)Nc1nc(NC(C)=O)nc(C(C)(C)F)n1
The melting point of the first is higher: 125 to 126 °C for the first, 109 to 111 °C for the second.

First: O=C1C(Br)=C(Br)C(=O)c2ncccc21
Second: C=CCC1=C(Cl)C(=O)c2ccccc2C1=O
The melting point of the first is higher: 243 to 245 °C for the first, 69 to 70 °C for the second.

First: CC(C)(C)c1ccc(OCC(O)CN2CCC3(CC2)CSC2=C(O3)c3cc(N4CCOCC4)ccc3C(=O)C2=O)cc1 (stereo unspecified)
Second: CCOC(=O)c1ccc(N2CCC(NC[C@H](O)COc3ccc(O)c(S(=O)(=O)NC)c3)CC2)cc1
The melting point of the first is higher: 107 to 109 °C for the first, 87 °C for the second.

Compared with c1ccc(CN2CCN(Cc3n[nH]c4ccccc34)CC2)cc1, OC(CCCN1CCN(c2noc3ccccc23)CC1)c1ccc(F)cc1 (stereo unspecified) is higher in melting point: 130 to 131 °C for the first, 142 to 144 °C for the second.

First: COc1ccnc(CSc2nc3cc(F)c(F)cc3[nH]2)c1C
Second: COc1cc2ncc(C#N)c(Oc3cccc(Br)c3)c2cc1OC
The melting point of the first is higher: 216 to 218 °C for the first, 187 to 190 °C for the second.

Compared with C=CCN(C)c1nc(Cc2ccc(OC)c(OC)c2)nc2sc(C#N)c(C)c12, COc1ccc(/C=C/C(=O)Nc2cc(OC)c(OC)cc2C(=O)O)cc1OC is higher in melting point: 98 to 100 °C for the first, 236 to 239 °C for the second.

First: c1ccc(Sc2c[nH]c3ncccc23)cc1
Second: Clc1ccccc1N1CCN=C1C(Cn1ccnc1)c1ccccc1 (stereo unspecified)
The melting point of the first is higher: 188 to 189 °C for the first, 118 to 122 °C for the second.

First: Nc1nc2ccc(C(O)C(CNC(=O)c3ccccc3)N3CCC(Cc4ccccc4)CC3)cc2s1 (stereo unspecified)
Second: Cc1ccc(C(=O)N2CCC(CCN3C(=O)CCc4c(CC5SC(=O)NC5=O)cccc43)CC2)cc1 (stereo unspecified)
The melting point of the first is higher: 160 to 162 °C for the first, 60 to 65 °C for the second.

First: O=C(CC1CSCCC1=O)c1ccc(F)cc1 (stereo unspecified)
Second: O=C1NCCC(C(=O)c2ccc(Cc3ccc(F)cc3)o2)=C1O
The melting point of the first is lower: 112 to 114 °C for the first, 166 to 168 °C for the second.

First: CC(C(=O)O)n1nnc2ccc(Oc3nn(C)c(C(F)(F)F)c3Cl)cc21 (stereo unspecified)
Second: Cc1cc(-c2sc(N3CCN(Cc4ccc(C(F)(F)F)cc4)C3=O)nc2C)on1
The melting point of the first is higher: 209 to 211 °C for the first, 201 to 203 °C for the second.

First: COc1ccc(NC(=O)c2c(Cl)cccc2Cl)c2nccc(Cl)c12
Second: COc1cccc(NC(=S)Nc2cscc2C)c1N
The melting point of the first is higher: 238 to 242 °C for the first, 148 to 153 °C for the second.

First: O=C(O)COCCc1ccc(F)cc1
Second: Cc1[nH]cnc1CCCCNC(=O)c1ccccc1
The melting point of the first is lower: 82 to 85 °C for the first, 124 to 128 °C for the second.

Compared with O=S(=O)(NCCCCOc1ccc(-n2ccnc2)cc1)c1ccccc1, Brc1ccc2c3c(cccc13)C(NCCCCn1ccnc1)=N2 is higher in melting point: 110 to 111 °C for the first, 145 to 147 °C for the second.

Compared with CCCCn1c2c(c3ccccc3c1=O)C(=O)c1cc3c(cc1-2)OCO3, CCCc1cc2c(=O)n3cc(C(N)=O)ccc3nc2s1 is higher in melting point: 200 to 201 °C for the first, 260 to 264 °C for the second.

First: CC12CCC(=O)C=C1CCC1C2=CCC2(C)C(C#N)=CCC12 (stereo unspecified)
Second: C[C@@H]1CCC[C@H](C)N1CCCNC(=O)CN1C(=O)CCC1(C)C
The melting point of the first is higher: 148 to 150 °C for the first, 86 to 87 °C for the second.

First: CC(C)C[C@H](NC(=O)COc1ccccc1)C(=O)N[C@@H](C(C)C)[C@H](O)c1c(-c2ccc(F)cc2)c1=O
Second: CSC(=NC(=O)c1cccc(Br)c1)NC(=O)c1ccccc1
The melting point of the first is lower: 75 to 79 °C for the first, 145 to 146 °C for the second.

First: CCc1c(Sc2cc(Cl)cc(Cl)c2)c(C(N)=O)nn1CCO
Second: CN1C(=O)Nc2cc(Cl)c(Cl)cc2C1(O)C(=O)NC(N)=S (stereo unspecified)
The melting point of the first is lower: 214 to 216 °C for the first, 225 to 228 °C for the second.

First: Oc1cc(O)nc(C(F)(F)F)n1
Second: CC(=O)Nc1cc(C(F)(F)F)no1
The melting point of the first is higher: 255 to 256 °C for the first, 108 to 110 °C for the second.

First: CCCCCCCCCCCCCC1CC(=O)NCCCNCCCCN1 (stereo unspecified)
Second: O=C(CSCCNC(=O)c1ccco1)NCCCOc1cccc(CN2CCCCC2)c1
The melting point of the first is higher: 72 to 73 °C for the first, 60.5 to 61.5 °C for the second.

First: Oc1cc(I)c(I)cc1O
Second: CC(=O)Nc1cc2c(cc1[N+](=O)[O-])OC(C)(C)[C@@H](Br)[C@@H]2O (relative stereo)
The melting point of the first is lower: 116 °C for the first, 198 to 200 °C for the second.

Compared with CC(Br)C(=O)c1ccc(OC(=O)C(C)(C)C)c(OC(=O)C(C)(C)C)c1 (stereo unspecified), CC(C)(C(O)c1ccc2c(c1)OCO2)[N+](=O)[O-] (stereo unspecified) is higher in melting point: 58 to 60 °C for the first, 88 to 91 °C for the second.

First: CSc1cc2c(cn1)c(=O)n(C)c1cc(C)nn21
Second: CC(=O)OC1C(CO)OC(n2c(=O)sc3cnc(N)nc32)C1OC(C)=O (stereo unspecified)
The melting point of the first is higher: > 300 °C for the first, 109 to 111 °C for the second.

First: N#Cc1ccc(-c2cnc(-c3ccc(C#N)cc3)cn2)cc1
Second: N#Cc1ccc(Cn2cc(C=CC=O)nn2)cc1
The melting point of the first is higher: > 300 °C for the first, 152 to 155 °C for the second.

First: CCC=Cc1nc2ccccc2n1-c1cccc(C#N)c1C
Second: CC(C)Oc1ccc2c(c1)Oc1ccccc1S2(=O)=O
The melting point of the first is higher: 125 °C for the first, 94 to 95 °C for the second.

With CCC1NC(=O)N(c2ccccc2)C(=O)N1OC(C)=O (stereo unspecified) the melting point was 128 to 130 °C.
